Measured values as given in patent US5763404A, “Methods for using LHRH antagonists with low histamine release” (priority 1995, dated 1998).
Starred links: 1 amine or outer side, 2 acyl side, 3 side chain; linkers in the order of their positions; H or OH if unused. Non-standard residues stand in square brackets, D forms with d. Residues, ends and D or L forms follow the SMILES beside them. *: point of attachment. dAla(cis-4-NHCOPyz-cHex) = N[C@H](C[C@H]1CC[C@@H](NC(=O)c2cnccn2)CC1)C(=O)O; X8 = O=C(N[C@H]1CC[C@@H](C[C@@H](N[*:1])C(=O)[*:2])CC1)c1ccncn1; X2 = O=C(N[C@H]1CC[C@@H](C[C@H](N[*:1])C(=O)[*:2])CC1)c1cnccn1; dPhe(4-Cl) = N[C@H](Cc1ccc(Cl)cc1)C(=O)O; X10 = O=C([C@@H](Cc1cnccn1)N[*:1])[*:2]; d2Nal = N[C@H](Cc1ccc2ccccc2c1)C(=O)O; X11 = O=C([C@H](N[*:1])c1ccsc1)[*:2]; Lys(iPr) = CC(C)NCCCC[C@H](N)C(=O)O; Orn(iPr) = CC(C)NCCC[C@H](N)C(=O)O; aIle = CC[C@@H](C)[C@H](N)C(=O)O; d3Pal = N[C@H](Cc1cccnc1)C(=O)O; NMeL = CN[C@@H](CC(C)C)C(=O)O; Nicotinoyl = O=C(c1cccnc1)*; Picolinoyl = O=C(c1ccccn1)*; Abu = CC[C@H](N)C(=O)O; X12 = O=C(c1ccncn1)*

System: anaesthesized rats
Experiment: wheal test, intradermal injection
Format: in vivo, rat
Parameters: Wheal (wheal response): unit not given here
Details: for Wheal Area: 10 ug peptide intradermally; for Wheal (wheal response): Table XIV and text, unit not given
Summary of the method: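 Anaesthetized rats given intradermal injection of 10 ug peptide in 100 ul saline; area of the wheal calculated from its diameter.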

In the case of `CC(=O)N[C@H](Cc1ccc2ccccc2c1)C(=O)N[C@H](Cc1ccc(Cl)cc1)C(=O)N[C@H](Cc1cccnc1)C(=O)N[C@@H](CO)C(=O)N[C@@H](CCCCNC(=O)c1ccccn1)C(=O)N[C@H](CCCCNC(=O)c1ccccn1)C(=O)N[C@H](C(=O)N[C@@H](CCCNC(C)C)C(=O)N1CCC[C@H]1C(=O)N[C@H](C)C(N)=O)C(C)C` [compound 26118] (Ac-[d2Nal][dPhe(4-Cl)][d3Pal]SK(Picolinoyl)[dK](Picolinoyl)V[Orn(iPr)]P[dA]-NH2), the “Wheal Area” value is reported as 119.6 ± 6.6 mm^2 /10 μg.
In the case of `CC(=O)N[C@H](Cc1ccc2ccccc2c1)C(=O)N[C@H](Cc1ccc(Cl)cc1)C(=O)N[C@H](Cc1cnccn1)C(=O)N[C@@H](CO)C(=O)N[C@@H](CCCCNC(=O)c1ccccn1)C(=O)N[C@H](CCCCNC(=O)c1ccccn1)C(=O)N[C@@H](CC(C)C)C(=O)N[C@@H](CCCNC(C)C)C(=O)N1CCC[C@H]1C(=O)N[C@H](C)C(N)=O` [compound 26119] (Ac-[d2Nal][dPhe(4-Cl)][X10]SK(Picolinoyl)[dK](Picolinoyl)L[Orn(iPr)]P[dA]-NH2), the “Wheal Area” value is reported as 103.9 ± 3.4 mm^2 /10 μg.
`CC(=O)N[C@H](Cc1ccc2ccccc2c1)C(=O)N[C@H](Cc1ccc(Cl)cc1)C(=O)N[C@H](Cc1c[nH]c2ccccc12)C(=O)N[C@@H](CO)C(=O)N[C@@H](CCCCNC(=O)c1ccccn1)C(=O)N[C@H](CCCCNC(=O)c1ccccn1)C(=O)N[C@@H](CC(C)C)C(=O)N[C@@H](CCCCNC(C)C)C(=O)N1CCC[C@H]1C(=O)N[C@H](C)C(N)=O` [compound 26177] (Ac-[d2Nal][dPhe(4-Cl)][dW]SK(Picolinoyl)[dK](Picolinoyl)L[Lys(iPr)]P[dA]-NH2) was tested, and the “Wheal Area” value was 71.0 ± 4.3 mm^2 /10 μg.
`CC[C@@H](C)[C@H](NC(=O)[C@@H](CCCCNC(=O)c1ccccn1)NC(=O)[C@H](CCCCNC(=O)c1ccccn1)NC(=O)[C@H](CO)NC(=O)[C@@H](Cc1cccnc1)NC(=O)[C@@H](Cc1ccc(Cl)cc1)NC(=O)[C@@H](Cc1ccc2ccccc2c1)NC(C)=O)C(=O)N[C@@H](CCCNC(C)C)C(=O)N1CCC[C@H]1C(=O)N[C@H](C)C(N)=O` [compound 26178] (Ac-[d2Nal][dPhe(4-Cl)][d3Pal]SK(Picolinoyl)[dK](Picolinoyl)[aIle][Orn(iPr)]P[dA]-NH2) was tested, and the “Wheal Area” value was 78.6 ± 4.5 mm^2 /10 μg.
`CC[C@H](NC(=O)[C@@H](CCCCNC(=O)c1ccccn1)NC(=O)[C@H](CCCCNC(=O)c1ccccn1)NC(=O)[C@H](CO)NC(=O)[C@@H](Cc1cccnc1)NC(=O)[C@@H](Cc1ccc(Cl)cc1)NC(=O)[C@@H](Cc1ccc2ccccc2c1)NC(C)=O)C(=O)N[C@@H](CCCNC(C)C)C(=O)N1CCC[C@H]1C(=O)N[C@H](C)C(N)=O` [compound 26179] (Ac-[d2Nal][dPhe(4-Cl)][d3Pal]SK(Picolinoyl)[dK](Picolinoyl)[Abu][Orn(iPr)]P[dA]-NH2) was tested, and the “Wheal Area” value was 101.5 ± 9.3 mm^2 /10 μg.
In the case of `CC(=O)N[C@H](Cc1ccc2ccccc2c1)C(=O)N[C@H](Cc1ccc(Cl)cc1)C(=O)N[C@H](Cc1cccnc1)C(=O)N[C@@H](CO)C(=O)N[C@@H](C[C@H]1CC[C@@H](NC(=O)c2cnccn2)CC1)C(=O)N[C@H](CCCCNC(=O)c1ccccn1)C(=O)N[C@@H](CC(C)C)C(=O)N[C@@H](CCCCNC(C)C)C(=O)N1CCC[C@H]1C(=O)N[C@H](C)C(N)=O` [compound 26180] (Ac-[d2Nal][dPhe(4-Cl)][d3Pal]S[X2][dK](Picolinoyl)L[Lys(iPr)]P[dA]-NH2), the “Wheal Area” value is reported as 99.5 ± 4.5 mm^2 /10 μg and the “Wheal (wheal response)” value is reported as 99.5 ± 4.5.
In the case of `CC(=O)N[C@H](Cc1ccc2ccccc2c1)C(=O)N[C@H](Cc1ccc(Cl)cc1)C(=O)N[C@H](Cc1cccnc1)C(=O)N[C@@H](CO)C(=O)N[C@@H](CCCCNC(=O)c1ccccn1)C(=O)N[C@H](C[C@H]1CC[C@@H](NC(=O)c2cnccn2)CC1)C(=O)N[C@@H](CC(C)C)C(=O)N[C@@H](CCCNC(C)C)C(=O)N1CCC[C@H]1C(=O)N[C@H](C)C(N)=O` [compound 26181] (Ac-[d2Nal][dPhe(4-Cl)][d3Pal]SK(Picolinoyl)[dAla(cis-4-NHCOPyz-cHex)]L[Orn(iPr)]P[dA]-NH2), the “Wheal (wheal response)” value is reported as 101.6 ± 2.2.
With `CC(=O)N[C@H](Cc1ccc2ccccc2c1)C(=O)N[C@H](Cc1ccc(Cl)cc1)C(=O)N[C@H](Cc1cccnc1)C(=O)N[C@@H](CO)C(=O)N[C@@H](CCCCNC(=O)c1ccncn1)C(=O)N[C@H](CCCCNC(=O)c1ccncn1)C(=O)N[C@@H](CC(C)C)C(=O)N[C@@H](CCCCNC(C)C)C(=O)N1CCC[C@H]1C(=O)N[C@H](C)C(N)=O` [compound 26322] (Ac-[d2Nal][dPhe(4-Cl)][d3Pal]SK(X12)[dK](X12)L[Lys(iPr)]P[dA]-NH2) the “Wheal Area” value was 130.2 ± 2.5 mm^2 /10 μg.
`CC(=O)N[C@H](Cc1ccc2ccccc2c1)C(=O)N[C@H](Cc1ccc(Cl)cc1)C(=O)N[C@H](Cc1cccnc1)C(=O)N[C@@H](CO)C(=O)N[C@@H](CCCCNC(=O)c1ccccn1)C(=O)N[C@H](C[C@H]1CC[C@@H](NC(=O)c2ccncn2)CC1)C(=O)N[C@@H](CC(C)C)C(=O)N[C@@H](CCCCNC(C)C)C(=O)N1CCC[C@H]1C(=O)N[C@H](C)C(N)=O` [compound 26323] (Ac-[d2Nal][dPhe(4-Cl)][d3Pal]SK(Picolinoyl)[X8]L[Lys(iPr)]P[dA]-NH2) was tested, and the “Wheal Area” value was 120.4 ± 4.7 mm^2 /10 μg.
For `CC(=O)N[C@H](Cc1ccc2ccccc2c1)C(=O)N[C@H](Cc1ccc(Cl)cc1)C(=O)N[C@H](Cc1cccnc1)C(=O)N[C@@H](CO)C(=O)N[C@@H](CCCCNC(=O)c1ccccn1)C(=O)N[C@H](C[C@H]1CC[C@@H](NC(=O)c2cnccn2)CC1)C(=O)N[C@H](C(=O)N[C@@H](CCCCNC(C)C)C(=O)N1CCC[C@H]1C(=O)N[C@H](C)C(N)=O)C(C)C` [compound 26325] (Ac-[d2Nal][dPhe(4-Cl)][d3Pal]SK(Picolinoyl)[dAla(cis-4-NHCOPyz-cHex)]V[Lys(iPr)]P[dA]-NH2), the “Wheal Area” value was 127.8 ± 4.9 mm^2 /10 μg and the “Wheal (wheal response)” value was 127.8 ± 4.9.
With `CC(=O)N[C@H](Cc1ccc2ccccc2c1)C(=O)N[C@H](Cc1ccc(Cl)cc1)C(=O)N[C@H](Cc1cccnc1)C(=O)N[C@@H](CO)C(=O)N[C@@H](C[C@H]1CC[C@@H](NC(=O)c2cnccn2)CC1)C(=O)N[C@H](C[C@H]1CC[C@@H](NC(=O)c2cnccn2)CC1)C(=O)N[C@@H](CC(C)C)C(=O)N[C@@H](CCCCNC(C)C)C(=O)N1CCC[C@H]1C(=O)N[C@H](C)C(N)=O` [compound 26326] (Ac-[d2Nal][dPhe(4-Cl)][d3Pal]S[X2][dAla(cis-4-NHCOPyz-cHex)]L[Lys(iPr)]P[dA]-NH2) the “Wheal Area” value was 115.5 ± 2.4 mm^2 /10 μg and the “Wheal (wheal response)” value was 115.5 ± 2.4.
In the case of `CC(=O)N[C@H](Cc1ccc2ccccc2c1)C(=O)N[C@H](Cc1ccc(Cl)cc1)C(=O)N[C@H](Cc1cccnc1)C(=O)N[C@@H](CO)C(=O)N[C@@H](CCCCNC(=O)c1cccnc1)C(=O)N[C@H](CCCCNC(=O)c1cccnc1)C(=O)N(C)[C@@H](CC(C)C)C(=O)N[C@@H](CCCCNC(C)C)C(=O)N1CCC[C@H]1C(=O)N[C@H](C)C(N)=O` [compound 26345] (Ac-[d2Nal][dPhe(4-Cl)][d3Pal]SK(Nicotinoyl)[dK](Nicotinoyl)[NMeL][Lys(iPr)]P[dA]-NH2), the “Wheal Area” value is reported as 110.5 ± 11.4 mm^2 /10 μg.
With `CC[C@H](NC(=O)[C@@H](CCCCNC(=O)c1ccccn1)NC(=O)[C@H](CCCCNC(=O)c1ccccn1)NC(=O)[C@H](CO)NC(=O)[C@@H](Cc1cccnc1)NC(=O)[C@@H](Cc1ccc(Cl)cc1)NC(=O)[C@@H](Cc1ccc2ccccc2c1)NC(C)=O)C(=O)N[C@@H](CCCNC(=N)N)C(=O)N1CCC[C@H]1C(=O)N[C@H](C)C(N)=O` [compound 26346] (Ac-[d2Nal][dPhe(4-Cl)][d3Pal]SK(Picolinoyl)[dK](Picolinoyl)[Abu]RP[dA]-NH2) the “Wheal Area” value was 113.2 ± 5.4 mm^2 /10 μg and the “Wheal (wheal response)” value was 113.2 ± 5.4.
For `CC(=O)N[C@H](Cc1ccc2ccccc2c1)C(=O)N[C@H](Cc1ccc(Cl)cc1)C(=O)N[C@H](Cc1cccnc1)C(=O)N[C@@H](CO)C(=O)N[C@@H](CCCCNC(=O)c1ccccn1)C(=O)N[C@H](C[C@H]1CC[C@@H](NC(=O)c2cnccn2)CC1)C(=O)N[C@@H](CC(C)C)C(=O)N[C@@H](CCCNC(=N)N)C(=O)N1CCC[C@H]1C(=O)N[C@H](C)C(N)=O` [compound 26347] (Ac-[d2Nal][dPhe(4-Cl)][d3Pal]SK(Picolinoyl)[dAla(cis-4-NHCOPyz-cHex)]LRP[dA]-NH2), the “Wheal Area” value was 119.6 ± 8.5 mm^2 /10 μg.
`CC(=O)N[C@H](Cc1ccc2ccccc2c1)C(=O)N[C@H](Cc1ccc(Cl)cc1)C(=O)N[C@H](Cc1cccnc1)C(=O)N[C@@H](CO)C(=O)N[C@@H](CCCCNC(=O)c1ccccn1)C(=O)N[C@H](C[C@H]1CC[C@@H](NC(=O)c2cnccn2)CC1)C(=O)N[C@@H](CC(C)C)C(=O)N[C@@H](CCCCNC(C)C)C(=O)N1CCC[C@H]1C(=O)N[C@H](CO)C(N)=O` [compound 26348] (Ac-[d2Nal][dPhe(4-Cl)][d3Pal]SK(Picolinoyl)[dAla(cis-4-NHCOPyz-cHex)]L[Lys(iPr)]P[dS]-NH2) was tested, and the “Wheal Area” value was 122.8 ± 5.7 mm^2 /10 μg.
For `CC(=O)N[C@H](Cc1ccc2ccccc2c1)C(=O)N[C@H](Cc1ccc(Cl)cc1)C(=O)N[C@@H](C(=O)N[C@@H](CO)C(=O)N[C@@H](CCCCNC(=O)c1ccccn1)C(=O)N[C@H](C[C@H]1CC[C@@H](NC(=O)c2cnccn2)CC1)C(=O)N[C@@H](CC(C)C)C(=O)N[C@@H](CCCCNC(C)C)C(=O)N1CCC[C@H]1C(=O)N[C@H](C)C(N)=O)c1ccsc1` [compound 26349] (Ac-[d2Nal][dPhe(4-Cl)][X11]SK(Picolinoyl)[dAla(cis-4-NHCOPyz-cHex)]L[Lys(iPr)]P[dA]-NH2), the “Wheal Area” value was 84.6 ± 3.9 mm^2 /10 μg.
With `CC(=O)N[C@H](Cc1ccc2ccccc2c1)C(=O)N[C@H](Cc1ccc(Cl)cc1)C(=O)N[C@H](Cc1cccnc1)C(=O)N[C@@H](CO)C(=O)N[C@@H](Cc1ccc(O)cc1)C(=O)N[C@H](CCCCNC(=O)c1ccccn1)C(=O)N[C@@H](CC(C)C)C(=O)N[C@@H](CCCNC(C)C)C(=O)N1CCC[C@H]1C(=O)N[C@H](C)C(N)=O` [compound 26363] (Ac-[d2Nal][dPhe(4-Cl)][d3Pal]SY[dK](Picolinoyl)L[Orn(iPr)]P[dA]-NH2) the “Wheal Area” value was 113.2 ± 5.5 mm^2 /10 μg.
